# Results published in PMC6207720, “Identification and antitumor activity of a novel inhibitor of the NIMA-related kinase NEK6” (Scientific Reports, 2018).
# How the values were obtained:
# [1] = test system: PEO1 (ovary); experiment: Cell-based cytotoxicity assay (ATPlite), PEO1; set-up: species or system human; conditions: Homo sapiens; PEO1, 72 h, ATPlite; NA = not active (IC50 greater than 100 µM); read-out: IC50 Values (µM ± SEM)
# Excerpt: The following human carcinoma cell lines were used for the study: MDA-MB-231 and MCF-7 (breast cancer; ATCC, Sesto San Giovanni, MI), PEO1 and COV318 (ovarian cancer; ECACC, Salisbury, UK and ATCC), HCT-15 and SW948 (colon cancer; Public Health England, Salisbury, UK and ATCC), NCI-H1975 and NCI-H1299, (lung cancer; ATCC). Cells were routinely tested free of mycoplasma (MycoAlert mycoplasma detection kit, LONZA, Rockland, ME, USA) and validated by STR (Short Tandem Repeat) DNA profiling (BMR Genomics srl, PD). Cells were grown following supplier indication, in a fully humidified atmosphere of 5% CO2/95% air. All the reagents were purchased from Sigma-Aldrich (St. Louis, MO), if not otherwise specified.
# [2] = biological target: T1, NEK9 (Homo sapiens, UniProt Q8TD19); experiment: Off-chip Mobility Shift Assay (MSA) profiling, NEK9; format: biochemical; conditions: ATP approximating Km
# T1 sequence (Q8TD19 1-979): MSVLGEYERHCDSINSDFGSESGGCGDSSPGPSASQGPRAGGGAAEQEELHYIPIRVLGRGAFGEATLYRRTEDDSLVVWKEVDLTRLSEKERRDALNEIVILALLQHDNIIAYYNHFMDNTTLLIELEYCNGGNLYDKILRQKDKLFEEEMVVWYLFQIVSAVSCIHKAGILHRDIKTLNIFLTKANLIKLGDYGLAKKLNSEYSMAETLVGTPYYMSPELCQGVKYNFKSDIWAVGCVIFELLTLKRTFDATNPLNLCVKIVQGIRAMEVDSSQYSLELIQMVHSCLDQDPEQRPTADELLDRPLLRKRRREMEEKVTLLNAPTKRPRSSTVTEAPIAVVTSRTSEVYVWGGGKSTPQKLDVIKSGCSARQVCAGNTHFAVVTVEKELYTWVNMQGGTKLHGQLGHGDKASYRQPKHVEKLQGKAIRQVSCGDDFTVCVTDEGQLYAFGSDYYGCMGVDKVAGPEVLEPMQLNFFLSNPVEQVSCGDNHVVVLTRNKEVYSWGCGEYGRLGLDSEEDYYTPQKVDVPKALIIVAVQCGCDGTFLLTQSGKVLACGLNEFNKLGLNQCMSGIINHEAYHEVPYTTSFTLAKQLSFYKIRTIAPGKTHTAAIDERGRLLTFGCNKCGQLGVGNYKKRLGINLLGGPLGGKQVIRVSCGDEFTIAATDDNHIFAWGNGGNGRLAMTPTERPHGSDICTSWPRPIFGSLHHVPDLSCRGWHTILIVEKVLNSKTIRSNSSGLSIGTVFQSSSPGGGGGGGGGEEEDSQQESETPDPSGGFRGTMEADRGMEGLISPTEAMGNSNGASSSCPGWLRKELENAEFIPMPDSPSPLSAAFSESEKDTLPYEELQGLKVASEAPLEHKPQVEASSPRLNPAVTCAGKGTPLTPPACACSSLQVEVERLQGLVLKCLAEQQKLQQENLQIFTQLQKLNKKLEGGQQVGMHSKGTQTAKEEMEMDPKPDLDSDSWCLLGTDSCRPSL
# Procedure: Therefore, we decided to evaluate the selectivity of compound 8 against a panel of NEK kinases at 10 µM, using the technique of Off-chip Mobility shift assay. This concentration was chosen according to the guidelines proposed by Knight and Shokat, since the probability of off-target effects increases dramatically above 10 µM[36]. Furthermore, ATP concentration was set to approximate the Km,ATP for each kinase, so that the resulting selectivity profile directly reflects the intrinsic affinities of the inhibitor[37]. […] A major consequence of this substitution may be the redistribution of surface charges at the flexible activation loop resulting in an altered electrostatic potential and ability of NEK6 kinase to interact with other molecules.
# The inhibitory activity of compounds 8 and 21 on NEK6 was also verified with MSA technique (Off-chip Mobility shift assay) (CARNA Biosciences Study ID: CBS170097, CARNA Biosciences, Kobe). […] PKR Inhibitor was used as positive control. For profiling study against NEK kinases (i.e. NEK1, NEK2, NEK6, NEK7, NEK9) (CARNA Biosciences Study ID: CBS170098), 8 was tested at 10 μM and ATP concentration approximating Km for each kinase. Assay condition for kinases are available on “Kinase profiling book” downloading by www.carnabio.com (https://www.carnabio.com/output/pdf/ProfilingProfilingBook_en.pdf).
smiles,measurement,setting,value
"CC1=C(C#N)C(O)=NC(=O)/C1=C\c1ccc(-c2ccccc2)o1 [Compound 8, (5Z)-2-hydroxy-4-methyl-6-oxo-5-[(5-phenylfuran-2-yl)methylidene]-5,6-dihydropyridine-3-carbonitrile]",IC50,[1],44 ± 6.5 µM
same,inhibition at 10 µM,[2],3.1%
